Results taken from the supplement of paper PMC10307832.

Tests used:
Experiment in all cases: relative viability (nuclei count vs DMSO), 5 days (fraction); higher = more cells survive
[1] = compound: CCN(CCO)CCCC(C)Nc1ccnc2cc(Cl)ccc12 [Hydroxychloroquine] + Nc1ncn([C@H]2C[C@H](O)[C@@H](CO)O2)c(=O)n1 [Decitabine] (partner 2 µM)
Method in brief: (§1)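 Medians of duplicate plates are given as relative viability. That measure is the nuclei count in treated wells divided by the count in vehicle wells. Counts were taken on 4× images of lung cancer cell lines in 1536-well plates, 5 days after pin-tool dosing the day after seeding with one drug alone or a fixed anchor-drug dose plus five library-drug doses (not always all listed) in √10 steps.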

[2] = compound: CCN(CCO)CCCC(C)Nc1ccnc2cc(Cl)ccc12 [Hydroxychloroquine] + C[C@@H](Oc1cc(-c2cnn(C3CCNCC3)c2)cnc1N)c1c(Cl)ccc(F)c1Cl [Crizotinib] (partner 1 µM)
Method in brief: as §1

[3] = compound: CCN(CCO)CCCC(C)Nc1ccnc2cc(Cl)ccc12 [Hydroxychloroquine] + N=C(N)NC(=N)NCCc1ccccc1 [Phenformin] (partner 250 µM)
Method in brief: as §1

[4] = compound: CCN(CCO)CCCC(C)Nc1ccnc2cc(Cl)ccc12 [Hydroxychloroquine] + CC1(C)CCC(c2ccc(Cl)cc2)=C(CN2CCN(c3ccc(C(=O)NS(=O)(=O)c4ccc(N[C@H](CCN5CCOCC5)CSc5ccccc5)c(S(=O)(=O)C(F)(F)F)c4)cc3)CC2)C1 [Navitoclax] (partner 0.5 µM)
Method in brief: as §1

Cell Line	relative viability ([1]; first compound 0.5 µM)	relative viability ([1]; first compound 1.581 µM)	relative viability ([1]; first compound 5 µM)	relative viability ([1]; first compound 15.81 µM)	relative viability ([1]; first compound 50 µM)	relative viability ([2]; first compound 0.5 µM)	relative viability ([2]; first compound 1.581 µM)	relative viability ([2]; first compound 5 µM)	relative viability ([2]; first compound 15.81 µM)	relative viability ([2]; first compound 50 µM)	relative viability ([3]; first compound 0.5 µM)	relative viability ([3]; first compound 1.581 µM)	relative viability ([3]; first compound 5 µM)	relative viability ([3]; first compound 15.81 µM)	relative viability ([3]; first compound 50 µM)	relative viability ([4]; first compound 0.5 µM)	relative viability ([4]; first compound 1.581 µM)	relative viability ([4]; first compound 5 µM)	relative viability ([4]; first compound 15.81 µM)	relative viability ([4]; first compound 50 µM)
HCC-366	0.314	0.348	0.315	0.316	0.34	0.698	0.607	0.402	0.514	0.612	0.564	0.558	0.597	0.605	0.657	1.09	1.04	0.963	1.07	1.16
HCC-827	0.323	0.302	0.317	0.301	0.279	0.86	0.916	1.01	0.976	0.871	0.447	0.339	0.359	0.395	0.414	0.941	1.02	1.03	1.1	1.02
HOP-62	0.209	0.239	0.206	0.207	0.206	0.954	0.836	0.843	1.05	0.744	0.557	0.603	0.762	0.686	0.755	0.962	1.13	1.1	1.03	1.13
LC-2-ad	0.732	0.777	0.776	0.744	0.854	0.44	0.426		0.473	0.547	0.587	0.521	0.573	0.632	0.54	0.337	0.332	0.478	0.416	0.405
LCLC-97TM1	0.217	0.247	0.276	0.274	0.189	0.379	0.259	0.4	0.449	0.481	0.435	0.409	0.488	0.422	0.384	0.432	0.619	0.656	0.517	0.397
LK-2	0.308	0.297	0.36	0.268	0.284	0.246		0.198	0.181	0.197	0.37	0.314		0.33	0.574	0.777	0.763	0.809	0.914	0.632
LOU-NH91	0.761	0.732	0.833	0.83	0.824	0.726	0.727	0.742	0.739	0.741	0.704	0.562	0.679	0.732	0.466	0.679	0.543	0.742	0.676	0.826
LU99A	0.864	0.795	0.877	1.01	1.01	0.566	0.533	0.593	0.606	0.66	0.765	0.735	0.873	0.751	0.799	0.858	0.707	0.93	0.679	0.749
LXF-289	0.411	0.395	0.338	0.366	0.357	0.838	0.773	0.803	0.822	0.853	0.533	0.513	0.517	0.505	0.495	0.956	0.986	0.983	0.948	0.999
NCI-H23	0.321	0.294	0.288	0.288	0.305	0.473	0.537	0.579	0.446	0.603	0.803	0.76	0.806	0.797	0.829	0.841	0.822	0.842	0.732	0.953
NCI-H322M	0.66	0.698	0.732	0.665	0.637	0.996	0.922	0.894	0.927	1.02	0.704	0.799	0.786	0.743	0.744	1	1.15	1.12	1.15	1.43
NCI-H441	0.23	0.326	0.241	0.245	0.228	0.624	0.824	0.92	0.734	0.663	0.922	0.726	0.815	0.94	0.944		0.767	0.52	0.707	0.671
NCI-H460	0.431	0.528	0.441	0.563	0.559	0.985	0.91	0.938	0.745	0.952	0.506	0.533	0.577	0.518	0.635	1.24	1.35	1.19	1.36	1.41
NCI-H520	0.532	0.549	0.513	0.491	0.526	0.894	0.826	0.86	0.752	0.993	0.539	0.403	0.649	0.683	0.628	1.12	1.16	1.13	1.03	1.2
NCI-H596	0.954	1.02	1.12	0.966	0.993	0.918	1.04	1.05	1.05	1.01	0.69	0.66	0.784	0.835	0.908	0.857	0.853	0.933	0.979	0.998
NCI-H647	0.369	0.438	0.446	0.388	0.444	1.23	1.07	1.21	1.12	1.33	0.503	0.556	0.441	0.63	0.661	1.23	0.938	1.29	1.19	1.31
NCI-H727	1.02	0.93	0.839	0.829	0.693	0.839	0.815	0.804	0.908	0.885	0.514	0.424	0.407	0.618	0.532	0.456	0.399	0.482	0.357	0.406
